Laboratory results from patent US12503490B2, “Method of treating Gram-negative bacterial infection with isolated darobactin compounds” (Northeastern University, priority 2018, dated 2025).

System: E. coli
Assay: Antagonization assay by lipopolysaccharide (LPS)
Type: cell-based
Design: key: +: grown; −: not grown
Procedure: darobactin A is a large compound of 966 Da molecular weight. The limit for penetration into Gram-negative bacteria is around 500 Da. It therefore seemed possible that darobactin A acted on the cell surface, similarly to polymyxin which targets lipopolysaccharide (LPS). In order to test this, activity of darobactin A was tested in the presence of LPS. E. coli was inoculated into 5 mL MHIIB, and grown until the cell density reach to OD600=0.1-0.9. The cell suspension was diluted to OD600=0.002 with 2×MHIIB. 40 μL of LPS solution (final concentration range from 0 to 800 μg/mL) and 2 μL of 2×MIC antibiotic solution (final concentration: polymyxin; 0.5 μg/mL, ampicillin; 16 μg/mL, darobactin A; 16 μg/mL) were mixed in a 96-well plate and fill up to 50 μL by sterile dI water. LPS and antibiotic solutions were mixed with 50 μL of E. coli cell suspensions, and incubated at 37° C. for 20 hours. The growth of E. coli was determined visually (Table 3).

Compound	growth of E. coli with 2× MIC antibiotic (LPS 0 μg/mL)	growth of E. coli with 2× MIC antibiotic (LPS 3.13 μg/mL)	growth of E. coli with 2× MIC antibiotic (LPS 6.25 μg/mL)	growth of E. coli with 2× MIC antibiotic (LPS 800 μg/mL)
CC1(C)S[C@@H]2[C@H](NC(=O)[C@H](N)c3ccccc3)C(=O)N2[C@H]1C(=O)O [Ampicillin]	−	−	−	−
Polymyxin B	−	−	+	+
